Measurements: patent publication US11426404B2, “Dosing of KRAS inhibitor for treatment of cancers” (AMGEN INC., priority 2019, dated 2022)
Where “and” joins values, the source holds several entries; their conditions need not be identical. Identical values can stand only once.

How the values were obtained:
patients with CRC = assay: Phase 1 study, updated results (cutoff Jan. 8, 2020): adverse events in patients with CRC, N = 42; assay type: in vivo;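 also: values are patient incidence of adverse events, i.e. counts of patients experiencing each event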
Source text: (§1) A subject undergoing a therapy is monitored for adverse events (AE) during the course of the therapy. A treatment related AE is an AE that is related to the treatment drug. A treatment emergent AE is one that a subject develops undergoing the treatment that was not present prior to start of therapy. In some cases, the treatment emergent AE is not or suspected not to be related to the treatment itself AEs are characterized as one of five grades—grade 1 is a mild AE; grade 2 is a moderate AE; grade 3 is a severe AE; grade 4 is a life-threatening or disabling AE; and grade 5 is death related to AE.
(§2) The grading of AEs is based on the guidelines provided in the CTCAE version 5.0. AEs for DLT assessment: Hematological toxicity: Febrile neutropenia; Neutropenic infection; Grade 4 neutropenia; Grade ≥3 thrombocytopenia for >7 days; Grade 3 thrombocytopenia with grade ≥2 bleeding; Grade 4 thrombocytopenia; Grade 4 Anemia
(§3) Non-hematological toxicity Grade ≥4, vomiting or diarrhea; Grade 3 diarrhea or grade 3 vomiting lasting more than 3 days despite optimal medical support; Grade ≥3 nausea for 3 days or more despite optimal medical support; Any other grade ≥3 AE
All enrolled patients had received prior lines of systemic anticancer therapy.

[1] = system: patients with advanced solid tumors other than NSCLC and CRC
Source text: as §1, §2, §3

KRAS p.G12C tumors [2] = assay: Preclinical KRAS p.G12C tumor models; assay type: in vivo
KRAS p.G12C tumors [3] = assay: Treatment of immune-competent mice; assay type: in vivo
clinical = settings: human, in vivo, po, 960 mg
KRAS p.G12C tumors [4] = settings: preclinical KRAS p.G12C models; cited from earlier work

## C=CC(=O)N1CCN(c2nc(=O)n(-c3c(C)ccnc3C(C)C)c3nc(-c4c(O)cccc4F)c(F)cc23)[C@@H](C)C1 [Compound A, 4-((S)-4-acryloyl-2-methylpiperazin-1-yl)-6-fluoro-7-(2-fluoro-6-hydroxyphenyl)-1-(2-isopropyl-4-methylpyridin-3-yl)pyrido[2,3-d]pyrimidin-2(1H)-one]
Patients with CRC; CRC patients
  tolerability: well tolerated with mild treatment-related toxicities
Patients with CRC; CRC, 42 patients
  anemia, grade 3 treatment-related AE: 1 patient
  diarrhea, grade 3 treatment-related AE: 1 patient
Patients with CRC; CRC, N = 42
  AEs leading to treatment discountinuation, Treatment-Emergent AEs (TEAEs): 2 (4.8) n (%)
  AEs leading to treatment discountinuation, Treatment-related TEAEs: 0 (0.0) n (%)
  Anemia (treatment-related TEAE of any grade): 2 (4.8) n (%)
  Any grade, Treatment-Emergent AEs (TEAEs): 38 (90.5) n (%)
  Any grade, Treatment-related TEAEs: 20 n (%) and 20 (47.6) n (%)
  Blood creatine phosphokinase increase (treatment-related TEAE of any grade): 2 (4.8) n (%)
  Diarrhea (treatment-related TEAE of any grade): 8 (19.0) n (%)
  Dose-limiting toxicities, Treatment-related TEAEs: 0 (0.0) n (%)
  Fatal AEs, Treatment-Emergent AEs (TEAEs): 3 (7.1) n (%)
  Fatal AEs, Treatment-related TEAEs: 0 (0.0) n (%)
  Fatigue (treatment-related TEAE of any grade): 4 (9.5) n (%)
  Grade ≥2, Treatment-Emergent AEs (TEAEs): 29 (69.0) n (%)
  Grade ≥2, Treatment-related TEAEs: 9 (21.4) n (%)
  Grade ≥3, Treatment-Emergent AEs (TEAEs): 13 (31.0) n (%)
  Grade ≥3, Treatment-related TEAEs: 2 (4.8) n (%)
  Grade ≥4, Treatment-Emergent AEs (TEAEs): 3 (7.1) n (%)
  Grade ≥4, Treatment-related TEAEs: 0 (0.0) n (%)
  Nausea (treatment-related TEAE of any grade): 2 (4.8) n (%)
  Serious AEs, Treatment-Emergent AEs (TEAEs): 10 (23.8) n (%)
  Serious AEs, Treatment-related TEAEs: 0 (0.0) n (%)
  Vomiting (treatment-related TEAE of any grade): 2 (4.8) n (%)
[1]; other solid tumors
  toxicities associated with Compound A: mild and manageable
[1]; other solid tumors, N = 25
  AEs leading to treatment discontinuation, All Treatment-Emergent AEs (TEAEs): 3 (12.0) n (%)
  Any grade, All Treatment-Emergent AEs (TEAEs): 20 (80.0) n (%)
  Any grade, All Treatment-Related TEAEs: 9 (36.0) n (%)
  Dose-limiting toxicities, All Treatment-Related TEAEs: 0 (0.0) n (%)
  Fatal AEs, All Treatment-Emergent AEs (TEAEs): 4 (16.0) n (%)
  Fatal AEs, All Treatment-Related TEAEs: 0 (0.0) n (%)
  Grade ≥2, All Treatment-Emergent AEs (TEAEs): 17 (68.0) n (%)
  Grade ≥2, All Treatment-Related TEAEs: 4 (16.0) n (%)
  Grade ≥3, All Treatment-Emergent AEs (TEAEs): 15 (60.0) n (%)
  Grade ≥3, All Treatment-Related TEAEs: 2 (8.0) n (%)
  Grade ≥4, All Treatment-Emergent AEs (TEAEs): 4 (16.0) n (%)
  Grade ≥4, All Treatment-Related TEAEs: 0 (0.0) n (%)
  Serious AEs, All Treatment-Emergent AEs (TEAEs): 13 (52.0) n (%)
  Serious AEs, All Treatment-Related TEAEs: 1 (4.0) n (%)
[1]; out of 25 patients
  diarrhea, grade 3 treatment-related AE: 1 patients
  diarrhea, treatment-related TEAE: 2 patients
  fatigue, treatment-related TEAE: 2 patients
  pneumonia, grade 3 treatment-related AE: 1 patients
KRAS p.G12C tumors [2]
  effect in combination with chemotherapy and targeted agents: significantly improved the anti-tumor efficacy of chemotherapy and targeted agents
KRAS p.G12C tumors [3]
  outcome in combination with immune checkpoint inhibition: durable cures
clinical
  AUC: 65.3 µg·h/mL
  AUC(0-t): 140 µg·h/mL

## C=CC(=O)N1CCN(c2ncnc3c(F)c(-c4c(O)cccc4F)c(Cl)cc23)CC1 [ARS-1620]
KRAS p.G12C tumors [4]
  in vivo efficacy: demonstrates in vivo efficacy
